In brackets after ≈: the same amount, converted by molar mass.
Key:
Escherichia coli [1] = test: Minimum inhibitory concentration against Escherichia coli DC0; type: functional
Streptococcus pyogenes = test: Minimum inhibitory concentration against Streptococcus pyogenes STA2; type: functional
Enterococcus faecium [2] = test: Minimum inhibitory concentration against Enterococcus faecium (VR; Vancomycin resistant) EF12; MIC (ug/mL) No growth; type: functional, organism-based
Escherichia coli [3] = test: Minimum inhibitory concentration against Escherichia coli ES142; type: functional
Moraxella catarrhalis = test: Minimum inhibitory concentration against Moraxella catarrhalis MC2; type: functional
Klebsiella pneumoniae [4] = test: Minimum inhibitory concentration against Klebsiella pneumoniae (CR; Ciprofloxacin resistant) KL328; type: functional
[5] = system: Staphylococcus saprophyticus; test: Minimum inhibitory concentration against Staphylococcus saprophyticus SS276; type: functional
Streptococcus pneumoniae [6] = test: Minimum inhibitory concentration against Streptococcus pneumoniae PS; Penicillin sensitive) STP64; type: functional
[7] = target: DNA gyrase (Escherichia coli); test: Inhibitory activity against quinolone resistant gyrase in Escherichia coli
[8] = system: Staphylococcus epidermidis; test: Minimum inhibitory concentration against Staphylococcus epidermidis (MSCR; Methicillin sensitive, ciprofloxacin resistant) SE48; type: functional
Proteus mirabilis = test: Minimum inhibitory concentration against Proteus mirabilis PR91; type: functional
Klebsiella pneumoniae [9] = test: Minimum inhibitory concentration against Klebsiella pneumoniae KL21; type: functional
[10] = target: DNA gyrase (Escherichia coli); test: Inhibitory activity against wild type gyrase in Escherichia coli
Staphylococcus aureus [11] = test: Minimum inhibitory concentration against Staphylococcus aureus (MRCS; Methicillin resistant, ciprofloxacin sensitive) MI300; type: functional
Escherichia coli [12] = test: Minimum inhibitory concentration against Escherichia coli DC2; type: functional
DNA topoisomerase II = DNA topoisomerase II (Homo sapiens, UniProt P11388+Q02880); test: Inhibitory activity against mammalian DNA topoisomerase II; type: protein assay
Enterococcus faecium [13] = test: Minimum inhibitory concentration against Enterococcus faecium (VS; Vancomycin sensitive) EF1; type: functional
Streptococcus viridans = test: Minimum inhibitory concentration against Streptococcus viridans STV1; type: functional
Pseudomonas aeruginosa = test: Minimum inhibitory concentration against Pseudomonas aeruginosa PS96; type: functional
Staphylococcus aureus [14] = test: Minimum inhibitory concentration against Staphylococcus aureus (MSCS; Methicillin sensitive, ciprofloxacin sensitive) MI273; type: functional
Streptococcus pneumoniae [15] = test: Minimum inhibitory concentration against Streptococcus pneumoniae (PS; Penicillin sensitive) STP6301; type: functional
Staphylococcus aureus [16] = test: Minimum inhibitory concentration against Staphylococcus aureus (MRCR; Methicillin resistant, ciprofloxacin resistant) MI339
Enterobacter cloacae [17] = test: Minimum inhibitory concentration against Enterobacter cloacae AE63; type: functional
Enterococcus faecalis [18] = test: Minimum inhibitory concentration against Enterococcus faecalis STD44; MIC (ug/mL) No growth
Staphylococcus aureus [19] = test: Minimum inhibitory concentration against Staphylococcus aureus (MSCR; Methicillin sensitive, ciprofloxacin resistant) MI345; type: functional
Staphylococcus aureus [20] = test: Minimum inhibitory concentration against Staphylococcus aureus (MSCS; Methicillin sensitive, ciprofloxacin sensitive) MI246; type: functional
Enterococcus faecalis [21] = test: Minimum inhibitory concentration against Enterococcus faecalis STD44
Enterococcus faecium [22] = test: Minimum inhibitory concentration against Enterococcus faecium (VR; Vancomycin resistant) EF12; type: functional
Enterobacter cloacae [23] = test: Minimum inhibitory concentration against Enterobacter cloacae AE63; MIC (ug/mL) No growth; type: functional, organism-based
Streptococcus pneumoniae [24] = test: Minimum inhibitory concentration against Streptococcus pneumoniae (PR; Penicillin resistant) STP51; type: functional
Streptococcus pneumoniae [25] = test: Minimum inhibitory concentration against Streptococcus pneumoniae (PS; Penicillin sensitive) STP6301; MIC (ug/mL) No growth; type: functional, organism-based

Compound	MIC (Escherichia coli [1]) [µg/mL]	MIC (Streptococcus pyogenes) [µg/mL]	MIC (Escherichia coli [3]) [µg/mL]	MIC (Moraxella catarrhalis) [µg/mL]	MIC (Klebsiella pneumoniae [4]) [µg/mL]	MIC [5] [µg/mL]	IC50 [7] [µg/mL]	MIC [8] [µg/mL]	MIC (Proteus mirabilis) [µg/mL]	MIC (Klebsiella pneumoniae [9]) [µg/mL]	IC50 [10] [µg/mL]	MIC (Staphylococcus aureus [11]) [µg/mL]	MIC (Escherichia coli [12]) [µg/mL]	MIC (Enterococcus faecium [13]) [µg/mL]	MIC (Streptococcus viridans) [µg/mL]	MIC (Pseudomonas aeruginosa) [µg/mL]	MIC (Staphylococcus aureus [14]) [µg/mL]	MIC (Staphylococcus aureus [16]) [µg/mL]	MIC (Staphylococcus aureus [19]) [µg/mL]	MIC (Staphylococcus aureus [20]) [µg/mL]	further results
C[C@H]1COc2c(N3CCC[C@H](N)C3)ccc3c(=O)c(C(=O)O)cn1c23	16 (≈ 46.6 µM)	> 32	1 (≈ 2.91 µM)	2 (≈ 5.82 µM)	> 32	16 (≈ 46.6 µM)	> 500	> 32	2 (≈ 5.82 µM)	0.25 (≈ 0.728 µM)	63 (≈ 183 µM)	2 (≈ 5.82 µM)	2 (≈ 5.82 µM)	> 32	> 32	> 32	4 (≈ 11.6 µM)	> 32	> 32	2 (≈ 5.82 µM)	MIC (Enterococcus faecium [2]): No growth; MIC (Streptococcus pneumoniae [6]): > 32 µg/mL; IC50 (DNA topoisomerase II): > 500 µg/mL; MIC (Streptococcus pneumoniae [15]): > 32 µg/mL; MIC (Enterobacter cloacae [17]): 0.25 µg/mL (≈ 0.728 µM); MIC (Enterococcus faecalis [18]): No growth
C[C@H]1COc2c(N3CCN(C)CC3)c(F)cc3c(=O)c(C(=O)O)cn1c23.C[C@H]1COc2c(N3CCN(C)CC3)c(F)cc3c(=O)c(C(=O)O)cn1c23.O [LEVOFLOXACIN]	0.25	0.5		0.03	4	0.12		2	0.06	< 0.004		0.12	0.25	0.25	0.25	0.5	0.12	2	2	0.12	MIC (Enterococcus faecalis [21]): 0.25 µg/mL; MIC (Enterococcus faecium [22]): 1 µg/mL; MIC (Enterobacter cloacae [17]): 0.008 µg/mL
C[C@H]1COc2c(N3CCN(C)CC3)ccc3c(=O)c(C(=O)O)cn1c23	> 32	4 (≈ 11.6 µM)	8 (≈ 23.3 µM)	4 (≈ 11.6 µM)	> 32	4 (≈ 11.6 µM)	> 500	> 32	8 (≈ 23.3 µM)	1 (≈ 2.91 µM)	31 (≈ 90.3 µM)	4 (≈ 11.6 µM)	16 (≈ 46.6 µM)	> 32	32 (≈ 93.2 µM)	> 32	8 (≈ 23.3 µM)	> 32	> 32	4 (≈ 11.6 µM)	MIC (Enterococcus faecium [2]): No growth; MIC (Enterobacter cloacae [23]): No growth; MIC (Streptococcus pneumoniae [6]): 16 µg/mL (≈ 46.6 µM); IC50 (DNA topoisomerase II): 250 µg/mL (≈ 728 µM); MIC (Streptococcus pneumoniae [24]): 32 µg/mL (≈ 93.2 µM); MIC (Streptococcus pneumoniae [15]): 16 µg/mL (≈ 46.6 µM); MIC (Enterococcus faecalis [18]): No growth
C[C@H](N)[C@@H]1CCN(c2ccc3c(=O)c(C(=O)O)cn4c3c2OC[C@@H]4C)C1	2 (≈ 5.6 µM)	0.016 (≈ 0.0448 µM)	0.5 (≈ 1.4 µM)	0.125 (≈ 0.35 µM)	> 8	0.125 (≈ 0.35 µM)	51.2 (≈ 143 µM)	1 (≈ 2.8 µM)	2 (≈ 5.6 µM)	0.016 (≈ 0.0448 µM)	6.4 (≈ 17.9 µM)	0.063 (≈ 0.176 µM)	0.063 (≈ 0.176 µM)	1 (≈ 2.8 µM)	0.125 (≈ 0.35 µM)	1 (≈ 2.8 µM)	0.125 (≈ 0.35 µM)	2 (≈ 5.6 µM)	1 (≈ 2.8 µM)	0.031 (≈ 0.0867 µM)	MIC (Enterococcus faecalis [21]): 0.031 µg/mL (≈ 0.0867 µM); MIC (Enterococcus faecium [22]): 1 µg/mL (≈ 2.8 µM); IC50 (DNA topoisomerase II): 38 µg/mL (≈ 106 µM); MIC (Streptococcus pneumoniae [24]): 0.063 µg/mL (≈ 0.176 µM); MIC (Enterobacter cloacae [17]): 0.125 µg/mL (≈ 0.35 µM); MIC (Streptococcus pneumoniae [25]): No growth
C[C@H]1COc2c(N3CC[C@@H](C(C)(C)N)C3)ccc3c(=O)c(C(=O)O)cn1c23	4 (≈ 10.8 µM)	0.016 (≈ 0.0431 µM)	0.5 (≈ 1.35 µM)	0.063 (≈ 0.17 µM)	> 8	0.031 (≈ 0.0835 µM)	> 102	1 (≈ 2.69 µM)	4 (≈ 10.8 µM)	0.031 (≈ 0.0835 µM)	3.2 (≈ 8.62 µM)	0.063 (≈ 0.17 µM)	0.125 (≈ 0.337 µM)	1 (≈ 2.69 µM)	1 (≈ 2.69 µM)	4 (≈ 10.8 µM)	0.125 (≈ 0.337 µM)	2 (≈ 5.38 µM)	2 (≈ 5.38 µM)	0.063 (≈ 0.17 µM)	MIC (Enterococcus faecalis [21]): 0.125 µg/mL (≈ 0.337 µM); MIC (Enterococcus faecium [22]): 1 µg/mL (≈ 2.69 µM); IC50 (DNA topoisomerase II): 150 µg/mL (≈ 404 µM); MIC (Streptococcus pneumoniae [24]): 0.5 µg/mL (≈ 1.35 µM); MIC (Streptococcus pneumoniae [15]): 0.016 µg/mL (≈ 0.0431 µM); MIC (Enterobacter cloacae [17]): 0.25 µg/mL (≈ 0.673 µM)

Source: ChEMBL document CHEMBL1136111 (Bioorg Med Chem Lett, 2003)
